The subject of the series is HT-29 (human colon cancer) cell line.

Here are results for one substance from patent US10898577B2, “Conjugate of ginsenoside compound K and glycol chitosan and an anti-tumor use thereof” (priority 2015, dated 2021).

Experimental: To observe the anticancer activity of the GC-CK conjugates, the cytotoxicity of pure GC, CK, and GC-CK conjugates were confirmed in anticancer cells by MTT assay.
Specifically, the HT-29 (human colon cancer) cell line was purchased from the Korean Cell Line Bank (Seoul, Korea) and cultured in RPMI 1640 medium (Welgene, Inc.) containing 1% (w/v) penicillin-streptomycin (Welgene, Inc.) and 10% (v/v) FBS (Welgene, Inc.) in 5% CO2 and 95% humidity at 37° C. The cells were inoculated at a density of 2×10^4 cells/well in 96-well plates (SPL Life Sciences, Korea). After growing for 24 h, the culture medium was replaced with the culture medium containing 100 μL, of various concentrations of GC, standard GC, and GC-CK and cultured for 24 h at 37° C. Next, 10 μL of 3-(4, 5-dimethylthiazol-2-yl)-2, 5-diphenyl-tertazolium bromide) (MTT) was added and the plates were cultured for 3 hours at 37° C. The culture medium was then removed and blue formazan crystals were dissolved with 100 μL of DMSO. The optical density was measured at 570 nm using a Synergy HT multidetection microplate reader (Molecular Devices, BioTek Instruments, Winooski, Vt., USA).

Consider Glycol chitosan [GC], for which the “cytotoxicity in HT29 cells” value is given as “did not exhibit any cytotoxicity”.
